One data set concerns thrombomodulin. Briefly: Thrombomodulin protein in human coronary artery smooth muscle cells (Western blot). Format: cell-based. The settings on record: HCASMC, 48 h, FIG. 21B. How it is done:
(§1) Human coronary artery smooth muscle cells (HCASM) were incubated with Vida-5 or Vida-11 at different concentrations for 48 h and then were solubilized in 50 al of SDS-PAGE sample buffer. The protein content in each sample was determined by the bicinchoninic acid protein assay. Samples were resolved by SDS-PAGE using a 4-12% NuPAGE gel, and proteins were electrophoretically transferred to polyvinylidene fluoride membrane for Western blotting. The membrane was blocked for 1 h at 25° C. with 5% nonfat dry milk in phosphate buffered saline Tween-20 (PBS-T) and then incubated with a mouse anti-thrombospondin-1 monoclonal antibody (2,000-fold dilution), or a mouse anti-TM monoclonal antibody (2,000-fold dilution) in PBS-T overnight at 4° C.
(§2) The membrane was washed with PBS-T and incubated with a horseradish peroxidase-labeled anti-mouse antibody for 1 h at 25° C. The membrane was then incubated with Amersham ECL Plus Western Blotting Detection Reagents. Specific bands were visualized by the Multiimage II of Alpha Innotech imaging system. Band intensity was quantified using Spot Denso.
(Immunoblotting shows a protein as a band on a membrane.)

In another data set the test system is CD14. Briefly: CD14 expression induction in HL-60 promyelocytic leukemia cells (real-time RT-PCR). Format: cell-based. Particulars: Homo sapiens; HL-60 cells, 24 h, mRNA normalized to GAPDH; Table 3 summary, some values average of 3 or more determinations; read-out: CD14 EC50. How it is done:
(§3) Some compounds were tested in HL-60 promyelocytic leukemia cells and a primary culture of human coronary artery smooth muscle cells (HCASMC) for CYP24A1 induction. It is well documented that CYP24A1 has a VDRE in its promoter region and is a specific target gene of VDR (Meyer et al., 2007, J Biol Chem 282: 22344-22352). […] Compounds also were tested in HCASMC for their effects in inducing VDR. To assess the suitability of a compound for modulating immune responses, compounds were tested in HL-60 for their effects in inducing CD14 expression. To assess the suitability of a compound for treating thrombosis, compounds also were tested in HCASMC for their effects in modulating thrombomodulin and thrombospondin-1.
(§4) Compounds are tested in human HL-60 promyelocytic leukemia cells to assess their potency in inducing the expression of CYP24A1 and CD14. HL-60 cells are cultured in IMDM supplemented with 20% heat-inactivated fetal bovine serum at 37° C. in a humidified 5% CO2-95% air atmosphere. Cells are plated into 6 well plates and treated with test agent for 24 h. Cells are lysed with the addition of 1 mL of Trizol and RNA prepared according to the manufacturer's protocol.
(§5) Real-time reverse transcription-PCR is performed with the forward and reverse PCR primers and 250 nM of the TAQMAN™ probe specifically designed for CYP24A1 or CD14. (A TAQMAN™ probe is comprised of a fluorophore covalently attached to the 5′-end of the oligonucleotide probe and a quencher at the 3′-end.) After the data acquisition, the CYP24A1 or CD14 mRNA expression level is normalized to the GAPDH mRNA level. FIGS. 2A and 2B show the results from a typical CYP24A1 (FIG. 2A) and CD14 (FIG. 2B) expression study.
(Real-time PCR tracks product formation cycle by cycle.)

A short description of data set [1]: Maximal absorbance wavelength and extinction coefficient (spectrophotometer scan). Particulars: 100 μM in 50:50 de-ionized water and ethanol. Format: physicochemical. How it is done:
To determine the maximal absorbance wavelength (ODmax) and the extinction coefficients for the compounds, each compound is diluted in a 50:50 solution (by volume) of de-ionized water and ethanol at 100 μM and scanned by a spectrophotometer.

The next data set relates to VDR. Briefly: VDR expression induction in primary culture of human coronary artery smooth muscle cells. Format: cell-based. Particulars: HCASMC, 24 h, Table 4 summary, some values average of 2 or more determinations, read-out: EC50 for VDR induction. How it is done: (§6) Compounds were tested in a primary culture of HCASMC to assess their potency in inducing the expression of CYP24A1 and VDR.
(§7) Primary culture of HCASMC was grown in smooth muscle growth medium SmGM-2 containing 5.5 mM glucose, 5% FBS, 50 μg/ml gentamicin, 50 ng/ml amphotericin-B, 5 μg/ml insulin, 2 ng/ml hFGF, and 0.5 ng/ml hEGF at 37° C. in a humidified 5% CO2-95% air. Cells were grown to >80% confluence and used within five passages.
(§8) Cells were plated into 6 well plates and treated with test agent for 24 h. Cells were lysed with the addition of 1 mL of Trizol and RNA prepared according to the manufacturer's protocol.
(§9) Real-time reverse transcription-PCR was performed with the forward and reverse PCR primers and […] of the TAQMAN™ probe specifically designed for CYP24A1 or VDR. (A TAQMAN™ probe is comprised of a fluorophore covalently attached to the 5′-end of the oligonucleotide probe and a quencher at the 3′-end.) After the data acquisition, the CYP24A1 or VDR mRNA expression level was normalized to the GAPDH mRNA level. […] Group mean±STDEV (standard deviation) are presented.

The test system of another data set is thrombospondin-1. Briefly: Thrombospondin-1 protein in human coronary artery smooth muscle cells (Western blot). In kind it is cell-based. Particulars: HCASMC, 48 h, FIG. 21A. How it is done: as §1, §2
The test system of data set [2] is CYP24A1. Briefly: CYP24A1 expression induction in primary culture of human coronary artery smooth muscle cells. In kind it is cell-based. Particulars: HCASMC, 24 h, Table 4 summary, some values average of 2 or more determinations, read-out: EC50 for CYP24A1 induction. As for the experimental part:
as §6, §7, §8, §9

In a further data set the test system is normal mice. Briefly: Hypercalcemic side effect profile and serum PTH in normal mice. In kind it is in vivo, Male C57/BL mice. Particulars: i.p. dosing once daily for 3 consecutive days. How it is done:
The normal mice model is a convenient and quick way to assess the hypercalcemic side effect profile of compounds. At the same time, data on serum PTH can be collected.
Male C57/BL mice at 18-20 g are dosed with the test agent at 100 al/mouse (concentrations as indicated) i.p. once daily for 3 consecutive days or at 10 ml/kg, p.o. gavage, once daily for 5 days. The animals were harvested 24 h after the last dose by anesthetization with ketamine/xylazine. Blood was collected from the aorta. Serum total calcium was measured using the QuantiChrom Calcium Assay kit and/or the Roche Hitachi 912 Chemistry Analyzer. Serum PTH was measured using a PTH Immunoassay. Vehicle control was 100 l/mouse of 5% EtOH/95% propylene glycol for i.p. dosing or 10 ml/kg of 20% Hydroxypropyl-β-Cyclodextrin for p.o. gavage dosing.
For serum chemistry data, group mean±SEM are presented. Differences between vehicle and compound-treated groups are assessed using a one-way ANOVA followed by a Dunnett's post-hoc test. FIGS. 3A and 3B show the results from a typical p.o. gavage dosing study (n=4-9 per group).

The test system of data set [3] is CYP24A1. The data set is described as follows: CYP24A1 expression induction in HL-60 promyelocytic leukemia cells (real-time RT-PCR). Format: cell-based. The settings on record: Homo sapiens; HL-60 cells, 24 h, mRNA normalized to GAPDH; Table 3 summary, some values average of 3 or more determinations; read-out: CYP24A1 EC50. As for the experimental part:
as §3, §4, §5

A further data set concerns uremic rats. Particulars: cited from earlier work.
The conditions of data set [4]: clinical studies, Martin et al., 2001; cited from earlier work.
The mark [5] stands for this setting: Slatopolsky et al., 1998, converted from ng/rat.

“Also recorded” adds a separate entry of the source. Like-named read-outs stand apart in the source and are kept apart here.

Consider two compounds from US20180327354A1, “Unnatural Analogues of Calcitriol and Uses Thereof” (Vidasym, Inc., priority 2009, published 2018).

Usually EC50 stands for the concentration at which the effect is half-maximal. Regarding `C=C1[C@H](O)CC(=C/C=C2\CCCC3(C)C2CCC3[C@@H](C)OCCCC(O)(CC)CC)C[C@H]1O` (stereo partly drawn) [Vida-21, (1R,3R)-5-((E)-2-((1S,7αS)-1-((R)-1-(4-ethyl-4-hydroxyhexyloxy)ethyl)-7α-methyldihydro-1H-inden-4(2H, 5H, 6H, 7H, 7αH)-ylidene)ethylidene)-2-methylenecyclohexane-1,3-diol], the thrombomodulin protein expression entry in the data set on thrombomodulin is on record as “induce; also recorded: increased”. The EC50 was 1.1 nM in the data set with CD14, 2.5 nM in the data set with VDR, 1.8 nM with CYP24A1 [2] and 0.8 nM with CYP24A1 [3]. The compound further gave a maximal absorbance wavelength in data set [1] of 253 nm. The same compound came in with an extinction coefficient in [1] (in M-1·cm-1 (unit assumed)) of 58710. The thrombospondin-1 protein expression result with thrombospondin-1 is “suppress; also recorded: significantly reduced”. Further, the “dose at which compound starts to raise serum Ca” value in the data set with normal mice is 0.1 µg/kg.

Take `C[C@H](/C=C/[C@H](C)C(C)(C)O)[C@H]1CC[C@H]2/C(=C/C=C3C[C@@H](O)C[C@H](O)C3)CCC[C@]12C` [paricalcitol]: in the data set on uremic rats (Noonan et al., 2008), the “dose at which compound raises serum Ca” value is 0.083 µg/kg and the “dose at which compound starts to suppress serum PTH” value (shortened to “dose … to suppress serum PTH”) was 0.083 µg/kg. Also, in the data set on uremic rats (setting [5]), the “dose at which compound raises serum Ca” value is approximately 0.0625 µg/kg and the “dose … to suppress serum PTH” value is approximately 0.02 µg/kg. Also, in the data set on uremic rats (Slatopolsky et al., 1998), the “dose at which compound raises serum Ca” value is recorded as 25 ng/rat and the “dose … to suppress serum PTH” value is recorded as 8 ng/rat. In addition, in [4], the “fold less potent in raising serum calcium than calcitriol” value is on record as 10 fold and the “fold less potent in suppressing PTH than calcitriol” value was “about 3 fold”.
